Test results reported in US7332504B2, “Heterocyclic substituted aminoazacycles useful as central nervous system agents” (Abbott Laboratories, priority 1999, dated 2008).
Counter-ions that a name gives are not always drawn. Like-named read-outs stand apart in the source and are kept apart here.

Experiments:
[1] = target: T1, neuronal nicotinic acetylcholine receptors (Rattus norvegicus, UniProt P09483+P12390); assay: Binding of [3H]-cytisine to neuronal nicotinic acetylcholine receptors, crude synaptic membranes from whole rat brain
T1 construct: crude synaptic membrane preparations from whole rat brain; from tissue; host or cells: whole rat brain, crude synaptic membranes
T1 sequence (P09483 31-630): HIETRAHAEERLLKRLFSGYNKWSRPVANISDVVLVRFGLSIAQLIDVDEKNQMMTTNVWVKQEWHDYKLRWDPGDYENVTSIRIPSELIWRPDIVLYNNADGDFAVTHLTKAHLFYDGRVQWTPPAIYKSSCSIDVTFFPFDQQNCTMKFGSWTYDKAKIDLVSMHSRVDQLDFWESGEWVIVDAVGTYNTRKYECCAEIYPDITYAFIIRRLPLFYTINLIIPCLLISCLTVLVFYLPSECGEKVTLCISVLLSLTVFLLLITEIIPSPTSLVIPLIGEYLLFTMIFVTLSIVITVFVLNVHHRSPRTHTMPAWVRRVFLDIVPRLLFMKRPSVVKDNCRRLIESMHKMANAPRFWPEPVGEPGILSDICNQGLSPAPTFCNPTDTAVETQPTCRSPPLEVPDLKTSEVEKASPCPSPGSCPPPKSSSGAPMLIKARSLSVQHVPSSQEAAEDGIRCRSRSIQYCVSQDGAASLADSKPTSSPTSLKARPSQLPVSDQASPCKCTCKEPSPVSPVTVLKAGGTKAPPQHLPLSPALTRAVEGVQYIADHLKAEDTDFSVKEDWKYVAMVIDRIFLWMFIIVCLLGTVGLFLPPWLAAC
T1 sequence (P12390 25-500): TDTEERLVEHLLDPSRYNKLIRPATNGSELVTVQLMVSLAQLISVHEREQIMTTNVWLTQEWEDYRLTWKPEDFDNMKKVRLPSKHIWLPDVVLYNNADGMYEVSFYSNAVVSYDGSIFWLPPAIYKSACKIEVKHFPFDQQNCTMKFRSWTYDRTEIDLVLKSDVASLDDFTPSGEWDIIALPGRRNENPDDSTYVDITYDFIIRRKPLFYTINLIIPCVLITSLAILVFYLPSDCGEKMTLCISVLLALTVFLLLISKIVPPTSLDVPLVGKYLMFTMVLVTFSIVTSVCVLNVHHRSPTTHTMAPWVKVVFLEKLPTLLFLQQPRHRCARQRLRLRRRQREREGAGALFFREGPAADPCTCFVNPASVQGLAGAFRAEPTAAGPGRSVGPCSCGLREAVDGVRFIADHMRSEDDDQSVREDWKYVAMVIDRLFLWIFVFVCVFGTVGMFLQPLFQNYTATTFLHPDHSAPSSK
Description: The In Vitro protocols for determination of nicotinic acetylcholine channel receptor binding potencies of ligands were determined as follows.
Binding of [^3H]-cytisine ([^3 H]-CYT) to neuronal nicotinic acetylcholine receptors was accomplished using crude synaptic membrane preparations from whole rat brain (Pabreza et al., Molecular Pharmacol., 1990, 39:9). Washed membranes were stored at —80° C. prior to use. Frozen aliquots were slowly thawed and resuspended in 20 volumes of buffer (containing: 120 mM NaCl, 5 mM KCl, 2 mM MgCl2, 2 mM CaCl2 and 50 mM Tris-Cl, pH 7.4 @4° C.). After centrifuging at 20,000×g for 15 minutes, the pellets were resuspended in 30 volumes of buffer.
The test compounds were dissolved in water to make 10 mM stock solutions. Each solution was then diluted (1:100) with buffer (as above) and further taken through seven serial log dilutions of produce test solution from 10^−5 to 10^−11 M.
Homogenate (containing 125-150 μg protein) was added to triplicate tubes containing the range of concentrations of test compound described above and [^3H]-CYT (1.25 nM) in a final volume of 500 μL. Samples were incubated for 60 minutes at 4° C., then rapidly filtered through Whatman GF/B filters presoaked in 0.5% polyethyleneimine using 3×4 mL of ice-cold buffer. The filter are counted in 4 mL of Ecolume® (ICN). Nonspecific binding was determined in the presence of 10 μM (−)-nicotine and values were expressed as a percentage of total binding. IC50 values were determined with the RS-1 (BBN) nonlinear least squares curve-fitting program and IC50 values were converted to Ki values using the Cheng and Prusoff correction ([…].

mouse hot plate paradigm = assay: Mouse hot plate paradigm (analgesia); type: in vivo; conditions: ip, 0.5 h, mice, intraperitoneal, dosed 30 minutes prior to testing, hot plate 55° C., increase in tenth jump latency relative to control, read-out: minimally effective dose (MED)
Description: An in vivo protocol was utilized to determine the effectiveness of nicotinic acetylcholine receptor ligands as analgesic agents in the mouse hot plate paradigm.
Separate groups of mice, (n=8/group) were utilized for each dose group. All drugs were administered by the intraperitoneal route of administration. Test drugs were dissolved in water to make a 6.2 mM stock solution. Animals were dosed with this solution (10 mL/kg body weight) for a 62 micromol/kg dose. Lower doses were administered similarly, following serial dilution of the stock solution in half-log increments. Animals were dosed 30 minutes prior to testing in the hot plate. The hot-plate utilized was an automated analgesia monitor (Model #AHP16AN, Omnitech Electronics, Inc. of Columbus, Ohio). The temperature of the hot plate was maintained at 55° C. and a cut-off time of 180 seconds was utilized. Latency until the tenth jump was recoreded as the dependent measure. An increase in the tenth jump latency relative to the control was considered an effect.

[2] = [3H]-cytisine 1.25 nM, whole rat brain membranes, 60 minutes at 4° C., Ki from IC50 by Cheng and Prusoff correction, read-out: Average Ki

SMILES	Ki [1] [nM]	minimal effective dose (mouse hot plate paradigm) [µmol/kg]	Ki [1, 2] [nM]
C[C@H]1CCN(c2ccc(Cl)nc2)C[C@H]1N (relative stereo) [Example 39, (cis) 1-(6-chloro-3-pyridinyl)-4-methyl-3-piperidinylamine hydrochloride]	85		
C[C@@H]1CCN(c2ccc(Cl)nc2)C[C@H]1N (relative stereo) [Example 40, (trans) 1-(6-chloro-3-pyridinyl)-4-methyl-3-piperidinylamine hydrochloride]	5.4		
CN[C@H]1CCN(c2ccc(Cl)nc2)C1 [Example 1, N-[(3S)-1-(6-chloro-3-pyridinyl)pyrrolidinyl]-N-methylamine hydrochloride]	44	62	
N[C@H]1CCN(c2ccc(Cl)nc2)C1 [Example 2, (3S)-1-(6-chloro-3-pyridinyl)pyrrolidinylamine dihydrochloride]	0.1	6.2	
CN(C)[C@H]1CCN(c2ccc(Cl)nc2)C1 [Example 3, N-[(3S)-1-(6-chloro-3-pyridinyl)pyrrolidinyl]-N,N-dimethylamine 4-methylbenzenesulfonate]	61	62	
N[C@@H]1CCN(c2ccc(Cl)nc2)C1 [Example 4, (3R)-1-(6-chloro-3-pyridinyl)pyrrolidinylamine 4-methylbenzenesulfonate]	0.22	1.9	
CN[C@@H]1CCN(c2ccc(Cl)nc2)C1 [Example 5, N-[(3R)-1-(6-chloro-3-pyridinyl)pyrrolidinyl]-N-methylamine hydrochloride]	5.5	62	
CN(C)[C@@H]1CCN(c2ccc(Cl)nc2)C1 [Example 6, N-[(3R)-1-(6-chloro-3-pyridinyl)pyrrolidinyl]-N,N-dimethylamine 4-methylbenzenesulfonate]	100		
NC1CCN(c2ccc(Cl)nc2)C1 (stereo not drawn) [Example 7, 1-(6-chloro-3-pyridinyl)-3-pyrrolidinylamine 4-methylbenzenesulfonate]	0.12	6.2	
N[C@H]1CCN(c2cccnc2)C1 [Example 8, (3S)-1-(3-pyridinyl)pyrrolidinylamine 4-methylbenzenesulfonate]	0.23	19	
CN[C@H]1CCN(c2cccnc2)C1 [Example 9, N-methyl-N-[(3S)-1-(3-pyridinyl)pyrrolidinyl]amine dihydrochloride]	2	62	
NC1CCN(c2cccnc2)C1 (stereo not drawn) [Example 10, 1-(3-pyridinyl)-3-pyrrolidinylamine bis(4-methylbenzenesulfonate)]	0.15		
N[C@@H]1CCN(c2cncc(C(F)(F)F)c2)C1 [Example 11, (3R)-1-[5-(trifluoromethyl)-3-pyridinyl]pyrrolidinylamine dihydrochloride]	3		
CN[C@@H]1CCN(c2cncc(C(F)(F)F)c2)C1 [Example 12, N-methyl-N-{(3R)-1-[5-(trifluoromethyl)-3-pyridinyl]pyrrolidinyl}amine hydrochloride]			114
N[C@H]1CCN(c2cncc(C(F)(F)F)c2)C1 [Example 13, (3S)-1-[5-(trifluoromethyl)-3-pyridinyl]pyrrolidinylamine dihydrochloride]	1		
CN[C@H]1CCN(c2cncc(C(F)(F)F)c2)C1 [Example 14, N-methyl-N-{(3S)-1-[5-(trifluoromethyl)-3-pyridinyl]pyrrolidinyl}amine hydrochloride]	6.3		
Cc1cc(N2CC[C@@H](N)C2)cnc1Cl [Example 15, (3R)-1-(6-chloro-5-methyl-3-pyridinyl)pyrrolidinylamine hydrochloride]	0.03	6.2	
CN[C@@H]1CCN(c2cnc(Cl)c(C)c2)C1 [Example 16, N-[(3R)-1-(6-chloro-5-methyl-3-pyridinyl)pyrrolidinyl]-N-methylamine dihydrochloride]	5.1	1.9	
Cc1cc(N2CC[C@H](N)C2)cnc1Cl [Example 17, (3S)-1-(6-chloro-5-methyl-3-pyridinyl)pyrrolidinylamine dihydrochloride]	0.03	6.2	

SMILES	Ki [1] [nM]	minimal effective dose (mouse hot plate paradigm) [µmol/kg]	Ki [1, 2] [nM]
CN[C@H]1CCN(c2cnc(Cl)c(C)c2)C1 [Example 18, N-[(3S)-1-(6-chloro-5-methyl-3-pyridinyl)pyrrolidinyl]-N-methylamine dihydrochloride]	0.58	6.2	
N[C@H]1CCN(c2cnc(Cl)c(Cl)c2)C1 [Example 19, (3S)-1-(5,6-dichloro-3-pyridinyl)pyrrolidinylamine dihydrochloride]	0.05	6.2	
CN[C@H]1CCN(c2cnc(Cl)c(Cl)c2)C1 [Example 20, N-[(3S)-1-(5,6-dichloro-3-pyridinyl)pyrrolidinyl]-N-methylamine hydrochloride]	0.59	19	
N[C@@H]1CCN(c2cnc(Cl)c(Cl)c2)C1 [Example 21, (3R)-1-(5,6-dichloro-3-pyridinyl)pyrrolidinylamine dihydrochloride]	0.13	6.2	
CN[C@@H]1CCN(c2cnc(Cl)c(Cl)c2)C1 [Example 22, N-[(3R)-1-(5,6-dichloro-3-pyridinyl)pyrrolidinyl]-N-methylamine hydrochloride]	13	19	
COc1cc(N2CC[C@H](N)C2)cnc1Cl [Example 23, (3S)-1-(6-chloro-5-methoxy-3-pyridinyl)pyrrolidinylamine dihydrochloride]	0.13	62	
CN[C@H]1CCN(c2cnc(Cl)c(OC)c2)C1 [Example 24, N-[(3S)-1-(6-chloro-5-methoxy-3-pyridinyl)pyrrolidinyl]-N-methylamine dihydrochloride]	4.1	62	
Cc1cc(N2CC[C@H](N)C2)cnc1F [Example 25, (3S)-1-(6-fluoro-5-methyl-3-pyridinyl)pyrrolidinylamine hydrochloride]	0.34	6.2	
CN[C@H]1CCN(c2cnc(F)c(C)c2)C1 [Example 26, N-[(3S)-1-(6-fluoro-5-methyl-3-pyridinyl)pyrrolidinyl]-N-methylamine dihydrochloride]	1.5		
Cc1cc(N2CC[C@@H](N)C2)cnc1F [Example 27, (3R)-1-(6-fluoro-5-methyl-3-pyridinyl)pyrrolidinylamine hydrochloride]	0.44		
CN[C@@H]1CCN(c2cnc(F)c(C)c2)C1 [Example 28, N-[(3R)-1-(6-fluoro-5-methyl-3-pyridinyl)pyrrolidinyl]-N-methylamine dihydrochloride]	39		
N[C@H]1CCN(c2cncc([N+](=O)[O-])c2)C1 [Example 29, (3S)-1-(5-nitro-3-pyridinyl)pyrrolidinylamine fumarate]	0.7	19	
CN[C@H]1CCN(c2cncc([N+](=O)[O-])c2)C1 [Example 30, N-methyl-N-[(3S)-1-(5-nitro-3-pyridinyl)pyrrolidinyl]amine fumarate]	12		
CN[C@@H]1CCN(c2cncc([N+](=O)[O-])c2)C1 [Example 32, N-methyl-N-[(3R)-1-(5-nitro-3-pyridinyl)pyrrolidinyl]amine fumarate]	195		
NC1CCN(c2ccc(Cl)nc2)CC1 [Example 37, 1-(6-chloro-3-pyridinyl)-4-piperidinylamine 4-methylbenzenesulfonate]			92
CN[C@@H]1CCCN(c2cccnc2)C1 [Example 44, N-methyl-N-[(3R)-1-(3-pyridinyl)piperidinyl]amine dihydrochloride]	205		
NC1CN(c2ccc(Cl)nc2)C1 [Example 50, 1-(6-chloro-3-pyridinyl)-3-azetidinylamine 4-methylbenzenesulfonate]			174
N[C@@H]1CCN(c2cccnc2)[C@@H]1CCl [Example 51, (2S,3R)-2-(chloromethyl)-1-(3-pyridinyl)pyrrolidinylamine dihydrochloride]	714		
